Consider 14 compounds from patent US6608086B2, “Dihydropyridines and new uses thereof” (Synaptic Pharmaceutical Corporation, priority 1993, dated 2003).

Structures are written as SMILES. pKi: −log10 of the molar value. Structures can show the parent of a compound that is named as a salt. Where two headings read alike, the source gives them in different places.

The target in assay [1] is T1, α1C Human Adrenergic Receptor (Homo sapiens, UniProt P35348).
T1 construct: The entire coding region of α1C (1401 bp); expressed in transfected cells
T1 sequence (P35348 1-466): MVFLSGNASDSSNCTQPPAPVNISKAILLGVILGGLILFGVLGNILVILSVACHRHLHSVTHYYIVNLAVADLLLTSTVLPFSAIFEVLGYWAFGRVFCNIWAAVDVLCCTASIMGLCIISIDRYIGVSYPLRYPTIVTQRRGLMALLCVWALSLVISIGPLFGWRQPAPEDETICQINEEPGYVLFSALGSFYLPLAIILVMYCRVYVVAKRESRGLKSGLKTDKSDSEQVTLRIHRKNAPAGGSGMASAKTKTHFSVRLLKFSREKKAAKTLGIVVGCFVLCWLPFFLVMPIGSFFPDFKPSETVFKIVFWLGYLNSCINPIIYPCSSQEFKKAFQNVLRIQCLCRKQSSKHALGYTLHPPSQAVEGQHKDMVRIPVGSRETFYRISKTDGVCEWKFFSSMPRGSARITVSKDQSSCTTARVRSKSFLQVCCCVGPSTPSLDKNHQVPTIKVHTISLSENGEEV
The experiment in a line: Radioligand binding, [3H]prazosin, cloned human α1C adrenergic receptor. Particulars: for pKi: pKi alpha-1 1c; for Ki: read-out: pKi alpha-1 1c (converted). In outline:
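Stably transfected mouse LM(tk−) fibroblast membranes bearing the cloned human α1C adrenoceptor served as receptor source. Specific binding was taken as the portion of 0.5 nM [3H]prazosin displaceable by 10 μM phentolamine after 20 min at 37° C., pH 7.5, in Mg2+/ascorbate-containing Tris buffer.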

The target of assay [2] is T2, α1B Human Adrenergic Receptor (Homo sapiens, UniProt P35368).
T2 construct: The entire coding region of α1B (1563 bp); expressed in transfected cells
T2 sequence (P35368 1-520): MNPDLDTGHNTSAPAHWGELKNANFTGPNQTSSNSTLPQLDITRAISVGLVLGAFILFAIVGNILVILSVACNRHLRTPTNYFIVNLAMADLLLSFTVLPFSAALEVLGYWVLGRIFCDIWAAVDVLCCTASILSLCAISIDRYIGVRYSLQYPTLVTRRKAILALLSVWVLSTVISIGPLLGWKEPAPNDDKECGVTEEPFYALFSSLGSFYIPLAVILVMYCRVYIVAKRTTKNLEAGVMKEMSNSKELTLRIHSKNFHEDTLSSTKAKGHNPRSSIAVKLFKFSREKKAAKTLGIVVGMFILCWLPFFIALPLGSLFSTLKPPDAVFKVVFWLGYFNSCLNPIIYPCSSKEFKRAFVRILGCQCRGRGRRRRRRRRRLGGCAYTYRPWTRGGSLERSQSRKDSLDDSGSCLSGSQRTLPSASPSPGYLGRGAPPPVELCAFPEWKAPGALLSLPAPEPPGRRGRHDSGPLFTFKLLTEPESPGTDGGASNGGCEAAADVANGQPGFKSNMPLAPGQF
The assay is described as follows: Radioligand binding, [3H]prazosin, cloned human α1B adrenergic receptor. Conditions: for pKi: pKi alpha-1 1b; for Ki: read-out: pKi alpha-1 1b (converted). Put shortly:
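[3H]prazosin (0.5 nM) binding was run for 20 min at 37° C in pH 7.5 Tris/MgCl2/ascorbate buffer on membranes of LM(tk−) cells stably expressing the cloned receptor. Filtration through GF/B ended the reaction; 10 μM phentolamine gave nonspecific binding.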

The target of the next assay is T3, α2B receptor (Homo sapiens, UniProt P18089).
T3 construct: host or cells: LM(tk-) cells, line L-NGC-α2B
T3 sequence (P18089 1-450): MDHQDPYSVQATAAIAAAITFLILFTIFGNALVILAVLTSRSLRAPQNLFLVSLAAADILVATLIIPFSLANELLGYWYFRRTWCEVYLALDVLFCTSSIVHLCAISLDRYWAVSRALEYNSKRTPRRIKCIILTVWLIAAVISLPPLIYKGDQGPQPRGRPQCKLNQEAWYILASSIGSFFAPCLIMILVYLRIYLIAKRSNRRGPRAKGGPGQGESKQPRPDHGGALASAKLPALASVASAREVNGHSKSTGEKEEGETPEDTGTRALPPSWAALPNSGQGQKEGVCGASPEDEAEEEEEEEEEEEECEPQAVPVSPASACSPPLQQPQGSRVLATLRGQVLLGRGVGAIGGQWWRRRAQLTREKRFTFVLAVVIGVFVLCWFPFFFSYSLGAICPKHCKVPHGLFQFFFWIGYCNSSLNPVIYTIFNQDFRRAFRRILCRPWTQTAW
The experiment in a line: Competition binding, [3H]rauwolscine, human α2B receptor. Particulars: for pKi: pKi alpha-2 2b. In outline:
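Filter-bound [3H]rauwolscine (0.5 nM) was measured after equilibrium competition with test antagonists on lysates of LM(tk−) cells stably transfected with each human α2 subtype. Buffer: 25 mM glycylglycine, pH 7.6 at room temperature; 10 μM phentolamine gave nonspecific binding.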

Setting [3] is: cloned human receptor in LM(tk-) cell membranes, SEM and n in lines below.
Where [4] appears, read: [3H]rauwolscine, LM(tk-) cell line L-NGC-α2B, SEM and n in lines below.
The mark [5] stands for this setting: cloned human α1C receptor, LM(tk−) cell membranes.
[6] abbreviates: cloned human α1B receptor, LM(tk−) cell membranes.
The mark [7] stands for this setting: [3H]rauwolscine, human α2B receptor, LM(tk−) cells.

Consider `COC(=O)C1=C(C)NC(c2ccoc2)=C(C(=O)NCCCN2CCC(c3ccccc3)(c3ccccc3)CC2)C1c1ccc([N+](=O)[O-])cc1` (stereo not drawn) [Example 43, 2-(Furan-3-yl)-, 4-dihydro-5-methoxycarbonyl-6-methyl-4-(4-nitrophenyl)-3-(N-(3-(4,4-diphenylpiperidin-1-yl)propyl)carboxamidopyridine, hydrochloride salt], for which the pKi was 8.62 in assay [1] (setting [3]), 6.74 in assay [2] (setting [3]) and 6.36 at α2B receptor (setting [4]).
`COC(=O)C1=C(C)NC(C)=C(C(=O)N(C)CCCN2CCC(c3ccccc3)(c3ccccc3)CC2)C1c1ccc([N+](=O)[O-])cc1` (stereo not drawn) [Example 46, hydrochloride hemihydrate]: the Ki is 20.4 nM in assay [1] (setting [3]) and 240 nM in assay [2] (setting [3]). The compound also showed a negative-log Ki (pKi) at α2B receptor of 6.31.
As for `COC(=O)C1=C(C)NC(C)=C(C(=O)NCCN2CCC(c3ccccc3)(c3ccccc3)CC2)C1c1ccc([N+](=O)[O-])cc1` (stereo not drawn) [Example 52, 1,4-Dihydro-3-methoxycarbonyl-2,6-dimethyl-4-(4-nitrophenyl)-5-{N-[2-(4,4-diphenylpiperidin-1-yl)ethyl]}carboxamidopyridine hydrochloride hemihydrate], the Ki was 8.71 nM in assay [1] (setting [3]) and 77.6 nM in assay [2] (setting [3]). This compound also gave a negative-log Ki (pKi) at α2B receptor of 6.10.
Consider `CC1=C(C(N)=O)C(c2ccc([N+](=O)[O-])cc2)C(C(=O)NCCN2CCC(c3ccccc3)(c3ccccc3)CC2)=C(C)N1` (stereo not drawn) [Example 54, 5-Carboxamide-1,4-dihydro-2,6-dimethyl-4-(4-nitrophenyl)-3-{N-[2-(4,4-diphenylpiperidin-1-yl)ethyl]}carboxamidopyridine hydrochloride hydrate], for which the pKi in assay [1] (setting [3]) is 7.91; in assay [2] (setting [3]), 6.76; at α2B receptor (setting [4]), 6.52.
In the case of `CC1=C(C(N)=O)C(c2cccc([N+](=O)[O-])c2)C(C(=O)NCCCN2CCC(c3ccccc3)(c3ccccc3)CC2)=C(C)N1` (stereo not drawn) [Example 61, 5-Carboxamido-1,4-dihydro-2,6-dimethyl-4-(3-nitrophenyl)-3-{N-[3-(4,4-diphenylpiperidin-1-yl)propyl]}carboxamidopyridine], the Ki is 3.8 nM in assay [1] (setting [3]); 603 nM on α2B receptor ([3H]rauwolscine, LM(tk-) cell line L-NGC-α2B, SEM and n in lines below, read-out: pKi alpha-2 2b (converted)). In assay [2] (setting [3]), this compound gave a negative logarithm of the Ki (pKi) of 6.37.
In the case of `CC1=C(C(=O)NCCCN2CCC(c3ccccc3)(c3ccccc3)CC2)C(c2ccc([N+](=O)[O-])cc2)c2c([nH]c(=O)[nH]c2=O)N1` (stereo not drawn) [Example 64], the pKi in assay [1] (setting [3]) is 7.45; in assay [2] (setting [3]), 6.45; at α2B receptor (setting [4]), 6.36.
Regarding `CCC1=C(C(=O)NCCCN2CCC(c3ccccc3)(c3ccccc3)CC2)C(c2ccc([N+](=O)[O-])cc2)C(C(=O)OC)=C(C)N1` (stereo not drawn) [Example 73, 2-Ethyl-1,4-dihydro-5-methoxycarbonyl-6-methyl-4-(4-nitro) phenyl-3-(N-(3-(4,4-diphenylpiperidin-1-yl)propyl))carboxamidopyridine], the Ki in assay [1] (setting [3]) is 0.661 nM; in assay [2] (setting [3]) it was 148 nM. This compound showed a negative-log Ki (pKi) at α2B receptor of 6.17.
For `COC(=O)C1=C(C)NC(c2ccccc2)=C(C(=O)NCCCN2CCC(c3ccccc3)(c3ccccc3)CC2)C1c1ccc([N+](=O)[O-])cc1` (stereo not drawn) [Example 78, 1,4-Dihydro-5-methoxycarbonyl-6-methyl-4-(4-nitro)phenyl-2-phenyl-3-(N-(3-(4,4-diphenylpiperidin-1-yl)propyl))carboxamidopyridine hydrochloride hydrate], in that order: 4.27 nM, 110 nM and 6.26.
For the compound `CCC1=C(C(=O)NCCCN2CCC(c3ccccc3)(c3ccccc3)CC2)C(c2ccc([N+](=O)[O-])cc2)C(C(N)=O)=C(C)N1` (stereo not drawn) [Example 81, 5-carboxamido-2-ethyl-1,4-dihydro-6-methyl-4-(4-nitro)phenyl-3-(N-(3-(4,4-diphenylpiperidin-1-yl)propyl))carboxamidopyridine hydrochloride], the pKi is 8.72 in assay [1] (setting [3]), 6.62 in assay [2] (setting [3]) and 6.79 on α2B receptor (setting [4]).
With `CCOC(=O)C1=C(CC(=O)NCCCN2CCC(c3ccccc3)(c3ccccc3)CC2)NC(C)=C(C(=O)OC)C1c1ccc([N+](=O)[O-])cc1` (stereo not drawn) [Example 89, 3-Ethoxycarbonyl-1,4-dihydro-5-methoxycarbonyl-6-methyl-4-(4-nitro)phenyl-2-(N-(3-(4,4,-diphenylpiperidin-1-yl)propyl)carboxamido)methylpyridine, fumarate salt], the Ki in assay [1] (setting [5]) is 501 nM; in assay [2] (setting [6]) it was 141 nM. The pKi on α2B receptor was 5.71.
Regarding `COC(=O)C1=C(C)N(C)C(C)=C(C(=O)OCCCN2CCC(c3ccccc3)(c3ccccc3)CC2)C1c1ccc([N+](=O)[O-])cc1` (stereo not drawn) [Example 92, 1,4-Dihydro-5-methoxycarbonyl-1,2,6-trimethyl-4-(4-nitrophenyl)-3-[3-(4,4-diphenylpiperidin-1-yl)propoxy]carbonylpyridine hydrochloride hydrate], the Ki in assay [1] (setting [5]) is 3.09 nM; in assay [2] (setting [6]), 58.9 nM. On α2B receptor, this compound had a pKi of 6.14.
Consider `COc1ccc(C2(c3ccccc3)CCN(CCCNC(=O)C3=C(C)NC(C)=C(C(N)=O)C3c3ccc([N+](=O)[O-])cc3)CC2)cc1` (stereo not drawn) [Example 98, 5-Carboxamido-1,4-dihydro-3-{N-[3-(4-(4-methoxyphenyl)-4-phenylpiperidin-1-yl)propyl]}carboxamido-2,6-dimethyl-4-(4-nitrophenyl)pyridine hydrochloride], for which the values for the negative logarithm of the Ki (pKi) (in assay [1] (setting [5]); in assay [2] (setting [6]); on α2B receptor (setting [7])) were 8.32, 6.52 and 6.23, respectively.
The matching figures for `CCC1=C(C(N)=O)C(c2ccc([N+](=O)[O-])cc2)C(C(=O)NCCCN2CCC(O)(c3ccccc3)CC2)=C(CC)N1` (stereo not drawn) [Example 100, 5-Carboxamido-2,6-diethyl-1,4-dihydro-3-{N-(3-(4-hydroxy-4-phenylpiperidin-1-yl)propyl]}carboxamido-4-(4-nitrophenyl)pyridine hydrochloride hydrate]: 8.36, 5.83 and 5.54.
With `CCC1=C(C(N)=O)C(c2ccc([N+](=O)[O-])cc2)C(C(=O)NCCCN2CCC(c3ccc(OC)cc3)(c3ccc(OC)cc3)CC2)=C(CC)N1` (stereo not drawn) [Example 103, 5-Carboxamido-2,6-diethyl-1,4-dihydro-3-{N-[3-(4,4-bis-(4-methoxyphenyl)piperidin-1-yl)propyl]}carboxamido}-4-(4-nitrophenyl)pyridine hydrochloride], the Ki in assay [1] (setting [5]) was 10.7 nM; in assay [2] (setting [6]), 182 nM. At α2B receptor, this compound gave a pKi of 6.13.

In general, pKi refers to the Ki on a negative log10 scale, so that one unit is a factor of ten. Higher therefore signals a low Ki.
